# PubChem BioAssay (NCI)
#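 GI50 is the concentration that inhibits growth by half. At the TGI there is no net growth.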
# Columns and labels:
# Assay in all cases: inhibition of tumour cell growth, NCI panel, 384-well format
# BT-549 breast = tested on: BT-549 breast
# NCI-H226 lung = tested on: NCI-H226 lung
# A498 renal = tested on: A498 renal
# MOLT-4 leukemia = tested on: MOLT-4 leukemia
# SNB-75 CNS = tested on: SNB-75 CNS
# SF-268 CNS = tested on: SF-268 CNS
# RPMI-8226 leukemia = tested on: RPMI-8226 leukemia
# MDA-MB-231 breast = tested on: MDA-MB-231 breast
# HL-60(TB) leukemia = tested on: HL-60(TB) leukemia
# SNB-19 CNS = tested on: SNB-19 CNS
# HOP-62 NSCLC = tested on: HOP-62 NSCLC
# U251 glioblastoma = tested on: U251 glioblastoma
# HS 578T breast = tested on: HS 578T breast
# SK-MEL-28 melanoma = tested on: SK-MEL-28 melanoma
# PC-3 prostate = tested on: PC-3 prostate
# SN12C renal = tested on: SN12C renal
# M14 melanoma = tested on: M14 melanoma
# K-562 leukemia = tested on: K-562 leukemia
# NCI-H322M lung = tested on: NCI-H322M lung
# HOP-92 NSCLC = tested on: HOP-92 NSCLC
# MALME-3M melanoma = tested on: MALME-3M melanoma
# MDA-MB-468 breast = tested on: MDA-MB-468 breast
# SF-539 CNS = tested on: SF-539 CNS
# OVCAR-8 ovarian = tested on: OVCAR-8 ovarian
# UO-31 renal = tested on: UO-31 renal
# SW-620 colon = tested on: SW-620 colon
# RXF 393 renal = tested on: RXF 393 renal
# DU-145 prostate = tested on: DU-145 prostate
# HCT-15 colon = tested on: HCT-15 colon
# SK-MEL-5 melanoma = tested on: SK-MEL-5 melanoma
# NCI-H522 lung = tested on: NCI-H522 lung
# HCC-2998 colon = tested on: HCC-2998 colon
# MDA-MB-435 melanoma = tested on: MDA-MB-435 melanoma
# EKVX NSCLC = tested on: EKVX NSCLC
# COLO 205 colon = tested on: COLO 205 colon
# OVCAR-4 ovarian = tested on: OVCAR-4 ovarian
# LOX IMVI melanoma = tested on: LOX IMVI melanoma
# OVCAR-3 ovarian = tested on: OVCAR-3 ovarian
# SR leukemia = tested on: SR leukemia
# NCI-H460 NSCLC = tested on: NCI-H460 NSCLC
# CCRF-CEM leukemia = tested on: CCRF-CEM leukemia
# NCI/ADR-RES ovarian = tested on: NCI/ADR-RES ovarian
# KM12 colon = tested on: KM12 colon
# IGROV1 ovarian = tested on: IGROV1 ovarian
# UACC-257 melanoma = tested on: UACC-257 melanoma
# HT29 colon = tested on: HT29 colon
# NCI-H23 lung = tested on: NCI-H23 lung
# OVCAR-5 ovarian = tested on: OVCAR-5 ovarian
# SF-295 CNS = tested on: SF-295 CNS
# TK-10 renal = tested on: TK-10 renal
# CAKI-1 renal = tested on: CAKI-1 renal
# T-47D breast = tested on: T-47D breast
# A549 NSCLC = tested on: A549 NSCLC
# ACHN renal = tested on: ACHN renal
# MCF7 breast = tested on: MCF7 breast
# UACC-62 melanoma = tested on: UACC-62 melanoma
# 786-0 renal = tested on: 786-0 renal
# SK-OV-3 ovarian = tested on: SK-OV-3 ovarian
smiles,measurement,setting,value
CCC(CC)c1cc(N[C@H]2CC[C@H](N)C2)n2nccc2n1,GI50,BT-549 breast,207 nM
same,TGI,BT-549 breast,459 nM
same,GI50,NCI-H226 lung,226 nM
same,TGI,NCI-H226 lung,513 nM
same,GI50,A498 renal,218 nM
same,TGI,A498 renal,457 nM
same,GI50,MOLT-4 leukemia,247 nM
same,TGI,MOLT-4 leukemia,528 nM
same,GI50,SNB-75 CNS,380 nM
same,TGI,SNB-75 CNS,1190 nM
same,GI50,SF-268 CNS,274 nM
same,TGI,SF-268 CNS,724 nM
same,GI50,RPMI-8226 leukemia,181 nM
same,TGI,RPMI-8226 leukemia,337 nM
same,GI50,MDA-MB-231 breast,269 nM
same,TGI,MDA-MB-231 breast,778 nM
same,GI50,HL-60(TB) leukemia,214 nM
same,TGI,HL-60(TB) leukemia,378 nM
same,GI50,SNB-19 CNS,377 nM
same,TGI,SNB-19 CNS,> 100000 nM
same,GI50,HOP-62 NSCLC,234 nM
same,TGI,HOP-62 NSCLC,532 nM
same,GI50,U251 glioblastoma,334 nM
same,TGI,U251 glioblastoma,995 nM
same,GI50,HS 578T breast,269 nM
same,TGI,HS 578T breast,628 nM
same,GI50,SK-MEL-28 melanoma,969 nM
same,TGI,SK-MEL-28 melanoma,2220 nM
same,GI50,PC-3 prostate,262 nM
same,TGI,PC-3 prostate,723 nM
same,GI50,SN12C renal,241 nM
same,TGI,SN12C renal,598 nM
same,GI50,M14 melanoma,276 nM
same,TGI,M14 melanoma,766 nM
same,GI50,K-562 leukemia,345 nM
same,TGI,K-562 leukemia,1230 nM
same,GI50,NCI-H322M lung,403 nM
same,TGI,NCI-H322M lung,1510 nM
same,GI50,HOP-92 NSCLC,340 nM
same,TGI,HOP-92 NSCLC,24300 nM
same,GI50,MALME-3M melanoma,761 nM
same,TGI,MALME-3M melanoma,1950 nM
same,GI50,MDA-MB-468 breast,254 nM
same,TGI,MDA-MB-468 breast,612 nM
same,GI50,SF-539 CNS,210 nM
same,TGI,SF-539 CNS,452 nM
same,GI50,OVCAR-8 ovarian,329 nM
same,TGI,OVCAR-8 ovarian,1760 nM
same,GI50,UO-31 renal,388 nM
same,TGI,UO-31 renal,1970 nM
same,GI50,SW-620 colon,360 nM
same,TGI,SW-620 colon,8000 nM
same,GI50,RXF 393 renal,191 nM
same,TGI,RXF 393 renal,366 nM
same,GI50,DU-145 prostate,313 nM
same,TGI,DU-145 prostate,933 nM
same,GI50,HCT-15 colon,348 nM
same,TGI,HCT-15 colon,1390 nM
same,GI50,SK-MEL-5 melanoma,182 nM
same,TGI,SK-MEL-5 melanoma,331 nM
same,GI50,NCI-H522 lung,209 nM
same,TGI,NCI-H522 lung,455 nM
same,GI50,HCC-2998 colon,235 nM
same,TGI,HCC-2998 colon,572 nM
same,GI50,MDA-MB-435 melanoma,320 nM
same,TGI,MDA-MB-435 melanoma,903 nM
same,GI50,EKVX NSCLC,516 nM
same,TGI,EKVX NSCLC,2650 nM
same,GI50,COLO 205 colon,267 nM
same,TGI,COLO 205 colon,646 nM
same,GI50,OVCAR-4 ovarian,192 nM
same,TGI,OVCAR-4 ovarian,414 nM
same,GI50,LOX IMVI melanoma,190 nM
same,TGI,LOX IMVI melanoma,343 nM
same,GI50,OVCAR-3 ovarian,200 nM
same,TGI,OVCAR-3 ovarian,411 nM
same,GI50,SR leukemia,125 nM
same,TGI,SR leukemia,253 nM
same,GI50,NCI-H460 NSCLC,195 nM
same,TGI,NCI-H460 NSCLC,461 nM
same,GI50,CCRF-CEM leukemia,210 nM
same,TGI,CCRF-CEM leukemia,423 nM
same,GI50,NCI/ADR-RES ovarian,2250 nM
same,TGI,NCI/ADR-RES ovarian,9280 nM
same,GI50,KM12 colon,295 nM
same,TGI,KM12 colon,906 nM
same,GI50,IGROV1 ovarian,414 nM
same,TGI,IGROV1 ovarian,> 100000 nM
same,GI50,UACC-257 melanoma,553 nM
same,TGI,UACC-257 melanoma,1770 nM
same,GI50,HT29 colon,406 nM
same,TGI,HT29 colon,> 100000 nM
same,GI50,NCI-H23 lung,220 nM
same,TGI,NCI-H23 lung,505 nM
same,GI50,OVCAR-5 ovarian,392 nM
same,TGI,OVCAR-5 ovarian,> 100000 nM
same,GI50,SF-295 CNS,223 nM
same,TGI,SF-295 CNS,499 nM
Cc1cncc(-c2nc(NCCc3c[nH]c4ccccc34)c3ncn(C(C)C)c3n2)c1,GI50,TK-10 renal,3120 nM
same,TGI,TK-10 renal,13200 nM
same,GI50,BT-549 breast,4910 nM
same,TGI,BT-549 breast,15400 nM
same,GI50,NCI-H226 lung,4340 nM
same,TGI,NCI-H226 lung,11300 nM
same,GI50,CAKI-1 renal,3960 nM
same,TGI,CAKI-1 renal,12700 nM
same,GI50,A498 renal,2390 nM
same,TGI,A498 renal,6390 nM
same,GI50,T-47D breast,3570 nM
same,TGI,T-47D breast,10900 nM
same,GI50,MOLT-4 leukemia,1870 nM
same,TGI,MOLT-4 leukemia,3550 nM
same,GI50,SNB-75 CNS,4460 nM
same,TGI,SNB-75 CNS,16800 nM
same,GI50,SF-268 CNS,3930 nM
same,TGI,SF-268 CNS,12800 nM
same,GI50,RPMI-8226 leukemia,2200 nM
same,TGI,RPMI-8226 leukemia,3780 nM
same,GI50,MDA-MB-231 breast,4160 nM
same,TGI,MDA-MB-231 breast,12000 nM
same,GI50,HL-60(TB) leukemia,1730 nM
same,TGI,HL-60(TB) leukemia,3150 nM
same,GI50,SNB-19 CNS,5500 nM
same,TGI,SNB-19 CNS,18800 nM
same,GI50,HOP-62 NSCLC,2920 nM
same,TGI,HOP-62 NSCLC,8220 nM
same,GI50,HS 578T breast,2520 nM
same,TGI,HS 578T breast,5410 nM
same,GI50,SK-MEL-28 melanoma,1890 nM
same,TGI,SK-MEL-28 melanoma,3940 nM
same,GI50,PC-3 prostate,3190 nM
same,TGI,PC-3 prostate,8620 nM
same,GI50,SN12C renal,5320 nM
same,TGI,SN12C renal,17200 nM
same,GI50,A549 NSCLC,3840 nM
same,TGI,A549 NSCLC,14100 nM
same,GI50,M14 melanoma,2840 nM
same,TGI,M14 melanoma,6110 nM
same,GI50,ACHN renal,4170 nM
same,TGI,ACHN renal,13500 nM
same,GI50,K-562 leukemia,1890 nM
same,TGI,K-562 leukemia,3470 nM
same,GI50,NCI-H322M lung,3060 nM
same,TGI,NCI-H322M lung,10100 nM
same,GI50,HOP-92 NSCLC,3760 nM
same,TGI,HOP-92 NSCLC,10500 nM
same,GI50,MALME-3M melanoma,1770 nM
same,TGI,MALME-3M melanoma,3240 nM
same,GI50,MDA-MB-468 breast,2210 nM
same,TGI,MDA-MB-468 breast,4140 nM
same,GI50,SF-539 CNS,2630 nM
same,TGI,SF-539 CNS,7180 nM
same,GI50,OVCAR-8 ovarian,4050 nM
same,TGI,OVCAR-8 ovarian,13600 nM
same,GI50,UO-31 renal,4640 nM
same,TGI,UO-31 renal,17300 nM
same,GI50,SW-620 colon,2110 nM
same,TGI,SW-620 colon,3740 nM
same,GI50,RXF 393 renal,1960 nM
same,TGI,RXF 393 renal,4630 nM
same,GI50,DU-145 prostate,3470 nM
same,TGI,DU-145 prostate,11100 nM
same,GI50,MCF7 breast,3420 nM
same,TGI,MCF7 breast,9200 nM
same,GI50,HCT-15 colon,1770 nM
same,TGI,HCT-15 colon,3290 nM
same,GI50,SK-MEL-5 melanoma,2500 nM
same,TGI,SK-MEL-5 melanoma,7390 nM
same,GI50,NCI-H522 lung,4420 nM
same,TGI,NCI-H522 lung,13100 nM
same,GI50,HCC-2998 colon,2500 nM
same,TGI,HCC-2998 colon,5000 nM
same,GI50,UACC-62 melanoma,2560 nM
same,TGI,UACC-62 melanoma,5810 nM
same,GI50,MDA-MB-435 melanoma,5520 nM
same,TGI,MDA-MB-435 melanoma,17800 nM
same,GI50,EKVX NSCLC,4240 nM
same,TGI,EKVX NSCLC,14000 nM
same,GI50,COLO 205 colon,2280 nM
same,TGI,COLO 205 colon,4290 nM
same,GI50,OVCAR-4 ovarian,3370 nM
same,TGI,OVCAR-4 ovarian,9200 nM
same,GI50,786-0 renal,1760 nM
same,TGI,786-0 renal,3650 nM
same,GI50,LOX IMVI melanoma,4150 nM
same,TGI,LOX IMVI melanoma,13900 nM
same,GI50,OVCAR-3 ovarian,4650 nM
same,TGI,OVCAR-3 ovarian,14300 nM
same,GI50,SR leukemia,1470 nM
same,TGI,SR leukemia,3020 nM
same,GI50,NCI-H460 NSCLC,2260 nM
same,TGI,NCI-H460 NSCLC,4530 nM
same,GI50,CCRF-CEM leukemia,2110 nM
same,TGI,CCRF-CEM leukemia,4220 nM
same,GI50,NCI/ADR-RES ovarian,3290 nM
same,TGI,NCI/ADR-RES ovarian,9080 nM
same,GI50,KM12 colon,2070 nM
same,TGI,KM12 colon,4210 nM
same,GI50,IGROV1 ovarian,4190 nM
same,TGI,IGROV1 ovarian,14800 nM
same,GI50,UACC-257 melanoma,2040 nM
same,TGI,UACC-257 melanoma,3540 nM
same,GI50,HT29 colon,1710 nM
same,TGI,HT29 colon,3190 nM
same,GI50,SK-OV-3 ovarian,3990 nM
same,TGI,SK-OV-3 ovarian,12300 nM
same,GI50,NCI-H23 lung,3810 nM
same,TGI,NCI-H23 lung,12800 nM
same,GI50,OVCAR-5 ovarian,2060 nM
same,TGI,OVCAR-5 ovarian,4730 nM
same,GI50,SF-295 CNS,1930 nM
same,TGI,SF-295 CNS,3930 nM
